{"source": "ChEMBL document CHEMBL5543137", "about": "“Design and Synthesis of Novel Ultralong-Acting Peptides as EDP-EBP Interaction Inhibitors for Pulmonary Fibrosis Treatment” (J Med Chem, 2024)", "key": {"Mus musculus [1]": {"tested_on": "Mus musculus", "experiment": "Antifibrotic activity against BLM-induced C57BL/6 mouse pulmonary fibrosis model assessed as reduction in Col1a1 gene expression at 240 ug/kg/day, sc administered for 2 weeks starting from 7 days post BLM induction and measured after 21 days post BLM induction by ScRNA-sequencing analysis", "type": "functional, organism-based", "conditions": "dose 240.0 µg/kg/day"}, "A549 [2]": {"tested_on": "A549", "experiment": "Antifibrotic activity against BLM-induced human A549 cells assessed as reduction in MMP-12 expression at 10 uM after 24 hrs by Western blotting analysis", "type": "functional, cell-based"}, "Mus musculus [3]": {"tested_on": "Mus musculus", "experiment": "Antifibrotic activity against BLM-induced C57BL/6 mouse pulmonary fibrosis model assessed as reduction in Dcn gene expression at 240 ug/kg/day, sc administered for 2 weeks starting from 7 days post BLM induction and measured after 21 days post BLM induction by ScRNA-sequencing analysis", "type": "functional, organism-based", "conditions": "dose 240.0 µg/kg/day"}, "A549 [4]": {"tested_on": "A549", "experiment": "Antifibrotic activity against TNFalpha-induced human A549 cells assessed as downregulation of vimentin expression level at 10 uM incubated for 24 hrs by Western blotting analysis", "type": "functional, cell-based"}, "Mus musculus [5]": {"tested_on": "Mus musculus", "experiment": "Antifibrotic activity against BLM-induced C57BL/6 mouse pulmonary fibrosis model assessed as reduction in Tpm1 gene expression at 240 ug/kg/day, sc administered for 2 weeks starting from 7 days post BLM induction and measured after 21 days post BLM induction by ScRNA-sequencing analysis", "type": "functional, organism-based", "conditions": "dose 240.0 µg/kg/day"}, "TC-1 [6]": {"tested_on": "TC-1", "experiment": "Inhibition of EBP signaling pathway in TGFalpha induced mouse TC-1 cells assessed as reduction in PI3K phosphorylation at 10 uM incubated for 24 hrs by Western blotting analysis", "type": "cell-based"}, "Mus musculus [7]": {"tested_on": "Mus musculus", "experiment": "Antifibrotic activity against BLM-induced C57BL/6 mouse pulmonary fibrosis model assessed as downregulation of IL-6 gene expression in lung tissue at 150 ug/kg, sc administered for 2 weeks starting from 7 days post BLM induction and measured after 21 days post BLM induction by RT-qPCR assay", "type": "functional, organism-based", "conditions": "dose 150.0 µg/kg"}, "A549 [8]": {"tested_on": "A549", "experiment": "Antifibrotic activity against TNFalpha-induced human A549 cells assessed as downregulation of vimentin gene expression level at 10 uM incubated for 24 hrs by RT-qPCR analysis", "type": "functional, cell-based"}, "Mus musculus [9]": {"tested_on": "Mus musculus", "experiment": "Antifibrotic activity against BLM-induced C57BL/6 mouse pulmonary fibrosis model assessed as reduction in Fbn1 gene expression at 240 ug/kg/day, sc administered for 2 weeks starting from 7 days post BLM induction and measured after 21 days post BLM induction by ScRNA-sequencing analysis", "type": "functional, organism-based", "conditions": "dose 240.0 µg/kg/day"}, "Mus musculus [10]": {"tested_on": "Mus musculus", "experiment": "Antifibrotic activity against BLM-induced C57BL/6 mouse pulmonary fibrosis model assessed as reversal of fibroblast activating effect at 240 ug/kg/day, sc administered for 2 weeks starting from 7 days post BLM induction and measured after 21 days post BLM induction", "type": "functional, organism-based", "conditions": "dose 240.0 µg/kg/day"}, "[11]": {"experiment": "Half-life in Sprague-Dawley rat serum at 0.12 mg/kg, sc administered as single dose measured upto 10 days by LC-MS/MS method", "type": "ADME, organism-based", "conditions": "time < 10 day"}, "[12]": {"experiment": "Half life in cynomolgus monkey at 0.06 mg/kg, sc administered as single dose measured upto 30 days by LC-MS/MS method", "type": "ADME, organism-based, Macaca fascicularis", "conditions": "in vivo, time < 30 day"}, "Mus musculus [13]": {"tested_on": "Mus musculus", "experiment": "Antifibrotic activity against BLM-induced C57BL/6 mouse pulmonary fibrosis model assessed as increase in monocytes in BALF at 30 to 240 ug/kg/day, sc administered for 2 weeks starting from 7 days post BLM induction and measured after 21 days post BLM induction", "type": "functional, organism-based", "conditions": "dose 30-240 µg/kg/day"}, "[14]": {"experiment": "Stability in rat serum measured upto 48 hrs by LC-MS/MS method", "type": "ADME, cell-free"}, "A549 [15]": {"tested_on": "A549", "experiment": "Antifibrotic activity against BLM-induced human A549 cells cocultured with RAW264.7 cells assessed as reduction in Fn expression at 10 uM after 24 hrs by Western blotting analysis", "type": "functional, cell-based"}, "Mus musculus [16]": {"tested_on": "Mus musculus", "experiment": "Antifibrotic activity against BLM-induced C57BL/6 mouse pulmonary fibrosis model assessed as reduction in Col1a2 gene expression at 240 ug/kg/day, sc administered for 2 weeks starting from 7 days post BLM induction and measured after 21 days post BLM induction by ScRNA-sequencing analysis", "type": "functional, organism-based", "conditions": "dose 240.0 µg/kg/day"}, "Mus musculus [17]": {"tested_on": "Mus musculus", "experiment": "Antifibrotic activity against BLM-induced sc dosed C57BL/6 mouse pulmonary fibrosis model assessed as minimum effective dose administered for 2 weeks starting from 7 days post BLM induction and measured after 21 days post BLM induction", "type": "functional", "conditions": "C57BL/6, 336 h, dose 30-240 µg/kg, read-out: MED"}, "Mus musculus [18]": {"tested_on": "Mus musculus", "experiment": "Antifibrotic activity against BLM-induced C57BL/6 mouse pulmonary fibrosis model assessed as reduction in MMP-12 expression at 240 ug/kg/day, sc administered for 2 weeks starting from 7 days post BLM induction and measured after 21 days post BLM induction in presence of GM6001", "type": "functional, organism-based", "conditions": "dose 240.0 µg/kg/day"}, "Mus musculus [19]": {"tested_on": "Mus musculus", "experiment": "Antifibrotic activity against BLM-induced C57BL/6 mouse pulmonary fibrosis model assessed as reduction in Mgp gene expression at 240 ug/kg/day, sc administered for 2 weeks starting from 7 days post BLM induction and measured after 21 days post BLM induction by ScRNA-sequencing analysis", "type": "functional, organism-based", "conditions": "dose 240.0 µg/kg/day"}, "A549 [20]": {"tested_on": "A549", "experiment": "Downregulation of EDP level in TNFalpha induced human A549 cells at 1 to 10 uM", "type": "functional, cell-based", "conditions": "dose 1-10 µM"}, "RAW264.7 [21]": {"tested_on": "RAW264.7", "experiment": "Effect on cell proliferation in mouse RAW264.7 cells at 10 uM after 24 hrs by flow cytometry analysis", "type": "functional, cell-based"}, "Mus musculus [22]": {"tested_on": "Mus musculus", "experiment": "Antifibrotic activity against BLM-induced C57BL/6 mouse pulmonary fibrosis model assessed as increase in ECM degradation at 240 ug/kg/day, sc administered for 2 weeks starting from 7 days post BLM induction and measured after 21 days post BLM induction by gene enrichment analysis", "type": "functional, organism-based", "conditions": "dose 240.0 µg/kg/day"}, "Mus musculus [23]": {"tested_on": "Mus musculus", "experiment": "Antifibrotic activity against BLM-induced C57BL/6 mouse pulmonary fibrosis model assessed as reduction in ECM deposition in lungs at 30 to 240 ug/kg, sc administered for 2 weeks starting from 7 days post BLM induction and measured after 21 days post BLM induction", "type": "functional, organism-based", "conditions": "dose 30-240 µg/kg"}, "RAW264.7 [24]": {"tested_on": "RAW264.7", "experiment": "Antifibrotic activity against BLM-induced mouse RAW264.7 cells assessed as downregulation in TIMP-1 expression at 10 uM after 24 hrs by Western blotting analysis", "type": "functional, cell-based"}, "Mus musculus [25]": {"tested_on": "Mus musculus", "experiment": "Antifibrotic activity against BLM-induced C57BL/6 mouse pulmonary fibrosis model assessed as improvement in lung condition at 30 to 240 ug/kg, sc administered for 2 weeks starting from 7 days post BLM induction and measured after 21 days post BLM induction", "type": "functional, organism-based", "conditions": "dose 30-240 µg/kg"}, "TC-1 [26]": {"tested_on": "TC-1", "experiment": "Inhibition of EBP signaling pathway in TGFalpha induced mouse TC-1 cells assessed as reduction in ERK phosphorylation at 10 uM incubated for 24 hrs by Western blotting analysis", "type": "cell-based"}, "Mus musculus [27]": {"tested_on": "Mus musculus", "experiment": "Antifibrotic activity against BLM-induced C57BL/6 mouse pulmonary fibrosis model assessed as reduction in FN expression at 240 ug/kg/day, sc administered for 2 weeks starting from 7 days post BLM induction and measured after 21 days post BLM induction in presence of Clo-Lip", "type": "functional, organism-based", "conditions": "dose 240.0 µg/kg/day"}, "Mus musculus [28]": {"tested_on": "Mus musculus", "experiment": "Antifibrotic activity against BLM-induced C57BL/6 mouse pulmonary fibrosis model assessed as reduction in Vimentin expression at 240 ug/kg/day, sc administered for 2 weeks starting from 7 days post BLM induction and measured after 21 days post BLM induction in presence of Clo-Lip", "type": "functional, organism-based", "conditions": "dose 240.0 µg/kg/day"}, "A549 [29]": {"tested_on": "A549", "experiment": "Inhibition of EBP signaling pathway in TGFalpha induced human A549 cells assessed as reduction in ERK phosphorylation at 10 uM incubated for 24 hrs by Western blotting analysis", "type": "cell-based"}}, "note": "Active and inactive are the calls of the source. No cut-off for these calls is given here. Starred links: 1 amine or outer side, 2 acyl side, 3 side chain; linkers in the order of their positions; H or OH if unused. Non-standard residues stand in square brackets, D forms with d. Residues, ends and D or L forms follow the SMILES beside them. *: point of attachment. C20 diacid = O=C(O)CCCCCCCCCCCCCCCCCCC(=O)*; γGlu = O=C(O)[C@H](CCC(=O)[*:2])N[*:1]; Iva = CC[C@](C)(N)C(=O)O; PEG2 = NCCOCCOCCC(=O)O", "data": [{"compound": "CC[C@](C)(NC(=O)[C@@H](NC(=O)CCOCCOCCNC(=O)CCOCCOCCNC(=O)CC[C@H](NC(=O)CCCCCCCCCCCCCCCCCCC(=O)O)C(=O)O)C(C)C)C(=O)NCC(=O)N[C@@H](CO)C(=O)N1CCC[C@H]1C(=O)N[C@@H](CO)C(=O)N[C@@H](C)C(=O)N[C@@H](CCC(N)=O)C(=O)N[C@@H](CCC(=O)O)C(=O)N[C@@H](CCC(=O)O)C(=O)N[C@@H](C)C(=O)N[C@@H](CO)C(=O)N1CCC[C@H]1C(=O)N[C@@H](C)C(N)=O", "note": "({C20 diacid-γGlu-PEG2-PEG2}-V[Iva]GSPSAQEEASPA-NH2)", "values": [{"measurement": "Activity", "setting": "Mus musculus [1]", "value": "Active"}, {"measurement": "Activity", "setting": "A549 [2]", "value": "inactive"}, {"measurement": "Activity", "setting": "Mus musculus [3]", "value": "Active"}, {"measurement": "Activity", "setting": "A549 [4]", "value": "Active"}, {"measurement": "Activity", "setting": "Mus musculus [5]", "value": "Active"}, {"measurement": "inhibition", "setting": "TC-1 [6]", "value": "Active"}, {"measurement": "Activity", "setting": "Mus musculus [7]", "value": "Active"}, {"measurement": "Activity", "setting": "A549 [8]", "value": "Active"}, {"measurement": "Activity", "setting": "Mus musculus [9]", "value": "Active"}, {"measurement": "Activity", "setting": "Mus musculus [10]", "value": "Active"}, {"measurement": "half-life", "setting": "[11]", "value": 33, "unit": "h"}, {"measurement": "half-life", "setting": "[12]", "value": 257, "unit": "h"}, {"measurement": "Activity", "setting": "Mus musculus [13]", "value": "Active"}, {"measurement": "Stability", "setting": "[14]", "value": "Stable"}, {"measurement": "Activity", "setting": "A549 [15]", "value": "Active"}, {"measurement": "Activity", "setting": "Mus musculus [16]", "value": "Active"}, {"measurement": "minimal effective dose", "setting": "Mus musculus [17]", "value": 0.03, "unit": "mg/kg"}, {"measurement": "Activity", "setting": "Mus musculus [18]", "value": "inactive"}, {"measurement": "Activity", "setting": "Mus musculus [19]", "value": "Active"}, {"measurement": "Activity", "setting": "A549 [20]", "value": "Dose-Dependent Effect"}, {"measurement": "Activity", "setting": "RAW264.7 [21]", "value": "inactive"}, {"measurement": "Activity", "setting": "Mus musculus [22]", "value": "Active"}, {"measurement": "Activity", "setting": "Mus musculus [23]", "value": "Active"}, {"measurement": "Activity", "setting": "RAW264.7 [24]", "value": "Active"}, {"measurement": "Activity", "setting": "Mus musculus [25]", "value": "Active"}, {"measurement": "inhibition", "setting": "TC-1 [26]", "value": "Active"}, {"measurement": "Activity", "setting": "Mus musculus [27]", "value": "inactive"}, {"measurement": "Activity", "setting": "Mus musculus [28]", "value": "inactive"}, {"measurement": "inhibition", "setting": "A549 [29]", "value": "Active"}]}]}
